“Also recorded” adds a separate entry of the source.
Key:
[1] = Pharmacokinetic profiling in mouse; format: in vivo; conditions: plasma, sc, mice, subcutaneous injection (8 mg/kg stated for Example compound 12), 8 hours after injection
Method: Mice were administered with 8 mg/kg Example compound 12 by subcutaneous injection. Plasma concentration of test compound was measured over the course of 8 hours.

[2] = tested on: CXCL10, IL-6, MCP-1 (CCL2), MIP-1α (CCL3) and IFN-γ; experiment: Serum cytokine and chemokine levels in mice, with or without LPS (V-Plex immunoassay); format: in vivo; conditions: compound followed by LPS 16 hours later
Method: A compound of the invention (Example compound 12; "Ex 12"), or a control S1-L-E compound (control Example compound 7; "Ex 7"), were administered to subjects following the in vivo protocol of Example 1. 16 hours after that administration, some subjects were administered lipopolysaccharide (LPS).
In subjects that received LPS alone, serum levels of CXCL10, IL-6, MCP-1 (CCL2) and MIP-1α (CCL3) were raised 100-1000 fold above the levels in control subjects that received vehicle alone. (In both cases, IFN-γ levels were below the 10 pg/mL threshold of detection.) In subjects that received the compound of the invention, followed by LPS 16 hours later, CXCL10, IL-6, MCP-1 (CCL2) and MIP-1α (CCL3) levels were a further ten-fold higher than the levels in subjects that received LPS alone (see Figure 2). […] IFN-γ levels were only detectable in subjects that had been administered the compound of the invention, with LPS treatment after 16 hours resulting in a further elevation in IFN-γ levels to a small extent. Quantification of cytokines and chemokines was performed on individual serum samples that were stored frozen (≤ -20 °C) after collection, using the electrochemiluminescence-based immunoassay and a custom mouse 5-plex panel according to the manufacturer's instructions (V-Plex assay, Mesoscale Discovery, USA).

[3] = biological target: T1, constitutively active STING (comprising a N154S mutation) (Homo sapiens, UniProt Q86WV6, N154S); experiment: Western Blot analysis for STING degradation in SAVI patient primary fibroblast cells; format: cell-based; conditions: SAVI patient fibroblasts (N154S); 1 µM; 20 hours; Figure 7
T1 construct: primary fibroblast cells with constitutively active STING (comprising a N154S mutation), derived from SAVI patients; endogenous in cells; host or cells: SAVI patient primary fibroblasts
Method: (§1) For this study, STING degradation was assessed in primary fibroblast cells with constitutively active STING (comprising a N154S mutation), derived from SAVI patients, and compared to healthy donor primary fibroblast cells.
(§2) Cells were seeded at 50,000 cells/well and cultured under standard conditions for 24 hours. Media was replaced with test compound and incubated for 20 hours prior to analysis.
(§3) Cell culture medium was replaced with fresh medium containing 1 µM Example compound and incubated for 20 hours. For cell lysis and western blotting, the methods described above for HFF-1 cells were applied.

STING [4] = biological target: T2, STING (Homo sapiens, UniProt Q86WV6); experiment: Western Blot analysis for STING degradation in H596, H1650 and HaCat cells; format: cell-based; conditions: 0.22 µM, 0.67 µM, 2 µM and 6 µM, 24h, Figure 4
Method: To assess STING degradation in H596 cells (ATCC, HTB-178) cells were seeded at a density of 100.000 cells/well in 24-well Nunclon Delta surface treated culture plate in RPMI-1640 growth medium (supplemented with 10% FBS, 1% Pen-strep). Cells were incubated over-night at 37°C 5% CO2 to allow adhesion. Next day growth medium was renewed and a 5x concentration of test compounds (2.5% DMSO) diluted in growth medium were added to the appropriate well. Final DMSO concentration was 0.5%. Cell culture plates were returned to the incubator for additional 24h. The same protocols were used to grow H1650 and HaCat cells except that cells were seeded at a density of 150,000 cells/well and 250,000 cells/well, respectively
Final test compound concentrations were 0.22 µM, 0.67 µM, 2 µM and 6 µM.
For cell lysis, western blotting and data analysis, the following methods were applied.
For cell lysing for Western Blot analysis cell culture plates were brought to ice, supernatant was removed by aspiration and cells washed 2x in ice-cold DPBS. […] Samples were either analysed directly or stored at -80°C until analysis.
For Western Blotting, total protein concentration in each lysate was determined using PIERCE Gold BCA Assay kit according to manufactures protocol. […]

STING [5] = biological target: T2, STING; experiment: Western Blot analysis for STING recovery following compound washout in HFF-1 cells; format: cell-based; design: To assess STING degradation and recovery in human foreskin fibroblasts HFF-1 cells; host or cells: HFF-1 human foreskin fibroblasts; conditions: 24 hours treatment, 48 hours after washout, Figure 6
Method: To assess STING degradation and recovery in human foreskin fibroblasts HFF-1 cells (ATCC, SCRC-1041) cells were seeded at a density of 60.000 cells/well in 24-well Nunclon Delta surface treated culture plate in DMEM growth medium (supplemented with 10% FBS, 1% Pen-strep). Cells were incubated over-night at 37°C 5% CO2 to allow adhesion. Next day growth medium was renewed and a 5x concentration of test compounds (2.5% DMSO) diluted in growth medium were added to the appropriate well. The final DMSO concentration were 0.5%. Cell culture plates were returned to the incubator for additional 24h.
Methods as described above for H596, H1650 and HaCat cells were applied for cell lysis and western blotting. Following 24 hours incubation with the test compounds, cell culture medium containing Example compound was removed, cells washed with fresh medium without Example compound, and incubated in fresh medium without Example compound for the indicated time.

wild-type STING = biological target: T3, wild-type STING (Homo sapiens, UniProt Q86WV6); experiment: Western Blot analysis for STING degradation in healthy donor primary fibroblast cells; format: cell-based; conditions: healthy donor fibroblasts; 1 µM; 20 hours; Figure 7
T3 construct: compared to healthy donor primary fibroblast cells; endogenous in cells; host or cells: healthy donor primary fibroblasts
Method: as §1, §2, §3

T2 sequence (Q86WV6 whole entry): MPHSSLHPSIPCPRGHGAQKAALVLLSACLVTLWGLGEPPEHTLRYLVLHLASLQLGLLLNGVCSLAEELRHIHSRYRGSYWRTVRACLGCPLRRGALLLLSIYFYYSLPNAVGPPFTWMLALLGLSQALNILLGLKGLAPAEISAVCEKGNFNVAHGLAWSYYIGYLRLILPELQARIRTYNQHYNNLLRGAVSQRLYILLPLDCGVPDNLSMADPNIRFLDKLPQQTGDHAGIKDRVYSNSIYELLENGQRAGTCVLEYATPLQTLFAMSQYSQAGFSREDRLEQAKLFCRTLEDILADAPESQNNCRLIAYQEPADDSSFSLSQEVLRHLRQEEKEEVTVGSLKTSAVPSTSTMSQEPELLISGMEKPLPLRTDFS
T1 sequence (Q86WV6 whole entry N154S): as the sequence (Q86WV6 whole entry) above, with N154S counted along it
T3 sequence (Q86WV6 whole entry): as the sequence (Q86WV6 whole entry) above

| concentration at 8 h [1] | STING degradation [3] | STING protein recovery after washout (STING [5]) | STING degradation (wild-type STING) | Compound | CXCL10, IL-6, MCP-1 (CCL2) and MIP-1α (CCL3) levels relative to subjects that received LPS alone [2] | STING degradation (STING [4]) |
| --- | --- | --- | --- | --- | --- | --- |
| ~100 nM | induce STING degradation | fail to recover to pre-treatment levels | induce STING degradation | CCn1nc(C)cc1C(=O)N=c1n(C)c2cc(C(N)=O)ccc2n1CCC(CCn1c(=NC(=O)c2cc(C)nn2CC)n(C)c2cc(C(N)=O)ccc21)OCC(=O)NCCOCCOCCOCCOCCC(=O)NCCOCCOCCOCCOCCNc1cccc2c1C(=O)N(C1CCC(=O)NC1=O)C2=O (stereo not shown) [Example compound 7] | only further elevated to a small extent | induction of STING degradation; also recorded: induce STING degradation in all cell lines tested at all concentrations tested |
|  |  |  |  | CCn1nc(C)cc1C(=O)N=c1n(C)c2cc(C(N)=O)ccc2n1CCC(CCn1c(=NC(=O)c2cc(C)nn2CC)n(C)c2cc(C(N)=O)ccc21)OCC(=O)NCCOCCOCCOCCOCCC(=O)NCCOCCOCCOCCOCC(=O)N[C@H](C(=O)N1C[C@H](O)C[C@H]1C(=O)NCc1ccc(-c2scnc2C)cc1)C(C)(C)C (stereo partly shown) [Example compound 6] |  | induction of STING degradation; also recorded: induces visible degradation in H1650 and H596 at higher concentrations |

Reference: EP4663204A1, “COMPOUNDS USEFUL FOR THE MODULATION OF THE ACTIVITY OF STING” (Sulis Therapeutics ApS, priority 2024, dated 2025)
